Experimental data from PMC8835363, “Arachidin-1, a Prenylated Stilbenoid from Peanut, Induces Apoptosis in Triple-Negative Breast Cancer Cells” (International Journal of Molecular Sciences, 2022).

Legend:
Assay type in all cases: cell-based, human
[1] = test system: caspase-8, 9, PARP, and survivin proteins in MDA-MB-436 cells; experiment: Western blot of caspase-8, caspase-9, PARP and survivin; conditions: 0.1 and 1 µM, 24 h
Protocol: MDA-MB-231 and MDA-MB-436 cells (10^7 and 5 × 10^6 cells/3 mL medium, respectively) were seeded in a 6-well cell culture plate. After 24 h, the cells were treated with A-1 (0.1 µM and 1 µM) for 24 h. Cells treated with 0.01% DMSO (ATCC; Manassas, VA, USA) were included as a control. Protein extracts were prepared using RIPA Lysis and Extraction Buffer plus Halt™ Protease Inhibitor Cocktail (Thermo Fisher Scientific; Waltham, MA, USA). The protein concentration was measured using the Bradford assay (Thermo Fisher Scientific; Waltham, MA, USA). Protein extracts (60 µg) with 5 µL of 2X Novex™ Tris-Glycine SDS Sample Buffer (Thermo Fisher Scientific; Waltham, MA, USA) and 1% dithiothreitol (DTT; Thermo Fisher Scientific; Waltham, MA, USA) were denatured and separated by electrophoresis using SDS-PAGE in 10% Tris-Glycine pre-cast gel (Novex™ WedgeWell™, Thermo Fisher Scientific; Waltham, MA, USA). The gel was run in 1X Novex™ Tris-Glycine SDS running buffer (Thermo Fisher Scientific; Waltham, MA, USA) at a constant 125 voltage for 90 min. The proteins were transferred into Trans-Blot Turbo Mini 0.2 µm PVDF membranes (Bio-Rad Laboratories; Hercules, CA, USA) using the Trans Blot Turbo System (Bio-Rad Laboratories; Hercules, CA, USA) at 1.3 amp and up to 25 volts for 7 min. After the membranes dried completely, they were incubated in 1X Tris Buffered Saline (TBS; Bio-Rad; Hercules, CA, USA) for 5 min at room temperature. Then, the membranes were blocked with 5% non-fat dry milk in 1X TBS containing 1% Tween 20 (TBST; Bio-Rad; Hercules, CA, USA) for 1 h at room temperature. The membranes were incubated with specific primary antibodies at 4 °C overnight. The primary antibodies and dilutions included rabbit anti-caspase-8 (D35G2) mAb (1:500; Cell Signaling Technology; Danvers, MA, USA), rabbit anti-PARP mAb (1:500; Cell Signaling Technology; Danvers, MA, USA), rabbit anti-human survivin polyclonal antibody (0.5 µg/mL; R&D Systems; Minneapolis, MN, USA), mouse anti-human caspase-9 mAb (1 µg/mL; R&D Systems; Minneapolis, MN, USA), mouse anti-vinculin antibody (2 µg/mL; R&D Systems; Minneapolis, MN, USA), and mouse anti-human GAPDH antibody (0.05 µg/mL; R&D Systems; Minneapolis, MN, USA). Afterwards, the membranes were incubated with HRP-conjugated goat anti-rabbit IgG secondary antibody (1:2000; Cell Signaling Technology; Danvers, MA, USA) and HRP-conjugated AffiniPure goat anti-mouse IgG secondary antibody (1:50,000; Jackson Immunoresearch Laboratories; West Grove, PA, USA) for 1 h at room temperature. The membranes were washed with 1X TBST and then incubated with SuperSignal™ West Pico PLUS Chemiluminescent Substrate (Thermo Fisher Scientific; Waltham, MA, USA). The membranes were scanned and analyzed using the Li-COR Odyssey® Fc Imaging System (LI-COR Biosciences; Lincoln, NE, USA).

[2] = test system: caspase-3/7 activity in MDA-MB-436 cells; experiment: Apo-ONE Homogenous Caspase-3/7 Assay; conditions: 0.1, 1, 10 µM, 48 h
Protocol: (§1) The Apo-ONE® Homogenous Caspase-3/7 Assay (Promega, Madison, WI, USA) was used for measuring caspase-3/7 activity. Cells (10,000 cells/well) were seeded in 96-well plates. After 24 h, the cells were treated with A-1, A-3, and RES, and incubated for an additional 48 h at 37 °C, with a humidified atmosphere of 5% CO2 (however, MDA-MB-436 cells were incubated in 0% CO2). Control groups were cells treated with 0.01% DMSO (ATCC; Manassas, VA, USA). According to the manufacturer, after 48 h of treatment, the caspase reagent was added to the cells and the plates were incubated at room temperature in the dark for 1 h. Then, fluorescence was measured every hour for a total of 4 h using the Cytation^TM 5 (BioTek; Winooski, VT, USA) plate reader at an excitation wavelength of 485 ± 20 nm and emission of 530 ± 25 nm.

[3] = test system: caspase-3/7 activity in MDA-MB-231 cells; experiment: Apo-ONE Homogenous Caspase-3/7 Assay; conditions: 0.1, 1, 10 µM, 48 h
Protocol: as §1

[4] = test system: MCF-10A cells; experiment: RealTime-Glo MT cell viability (cytotoxicity) assay; conditions: 1 µM, 24, 48, 72 h
Protocol: The cytotoxicity of RES, A-1, and A-3 was measured using the RealTime-Glo^TM MT Cell Viability Assay (Promega, Madison, WI, USA). The cells (10,000 cells/well) were seeded into 96-well plates. After 24 h, they were treated with various 10-fold dilutions of RES, A-1, and A-3 with concentrations ranging from 0.1 µM to 1000 µM. Cells with 0.1% DMSO (ATCC; Manassas, VA, USA) were included as a control. Luminescence was measured every 12 h for 72 total hours in a Cytation^TM 5 (BioTek, Winooski, VT, USA) plate reader. All experiments were performed in triplicates.

[5] = test system: MDA-MB-231 cells; experiment: Annexin V-FITC/PI apoptosis assay (flow cytometry); conditions: mean ± SD
Protocol: (§2) Cells (10^6 cells/well) were seeded onto 6-well plates. After 24 h, the cells were incubated with A-1 (0.1 and 1 µM) for 24, 48, and 72 h. The control groups were incubated with 0.01% DMSO (ATCC; Manassas, VA, USA) for every hour. Then, cells were collected and washed twice with cold 1X PBS and stained with both annexin V-FITC and PI for 5 min at room temperature. The cells were analyzed by flow cytometry using BD FACS Aria (BD Biosciences, Franklin Lakes, NJ, USA). The positive controls (annexin negative/PI negative; annexin negative/PI positive; and annexin positive/PI negative) were used to set up compensation and set quadrants. The early apoptotic cells were measured in the quadrant of annexin V positive/PI negative and late apoptotic/necrotic cells were measured in the quadrant of annexin positive/PI positive. Data were analyzed with FlowJo™ v10.8 Software (BD Life Sciences; Ashland, OR, USA). All experiments were performed in triplicates.

[6] = test system: MDA-MB-436 cells; experiment: Annexin V-FITC/PI apoptosis assay (flow cytometry); conditions: mean ± SD
Protocol: as §2

## CC(C)/C=C/c1c(O)cc(/C=C/c2ccc(O)c(O)c2)cc1O [A-1, arachidin-1]
[1]
  cleaved PARP level: significantly increased
  cleaved caspase-9 level: significantly increased
  full-length caspase-8 level: no significant change
  survivin expression: downregulated
[2]
  caspase-3/7 activity vs control: significant increase of dose-dependent caspase-3/7 activities
[3]
  caspase-3/7 activity vs control: significant increase of dose-dependent caspase-3/7 activities
[4]
  cytotoxicity in non-cancerous epithelial cells: did not show any statistically significant cytotoxicity
[5]; 0.1 µM, 24 h
  percentage of cells in early apoptosis: 21.29 ± 1.94%
[5]; 0.1 µM, 48 h
  percentage of cells in early apoptosis: 63.47 ± 0.90%
[5]; 0.1 µM, 72 h
  percentage of cells in early apoptosis: 53.1 ± 2.50%
[5]; 1 µM, 24 h
  percentage of cells in early apoptosis: 24.76 ± 1.65%
[5]; 1 µM, 48 h
  percentage of cells in early apoptosis: 68.67 ± 0.76%
[5]; 1 µM, 72 h
  percentage of cells in early apoptosis: 51.77 ± 2.37%
[6]; 0.1 µM, 24 h
  percentage of early apoptotic cells: 35.76 ± 4.10%
[6]; 0.1 µM, 48 h
  percentage of early apoptotic cells: 44.90 ± 0.89%
[6]; 0.1 µM, 72 h
  percentage of early apoptotic cells: 45.73 ± 0.96%
[6]; 1 µM, 24 h
  percentage of early apoptotic cells: 35.27 ± 3.78%
[6]; 1 µM, 48 h
  percentage of early apoptotic cells: 46.11 ± 3.40%
[6]; 1 µM, 72 h
  percentage of early apoptotic cells: 38.77 ± 2.59%
